Assay [1] has as its target T1, Farnesyl protein transferase (FT) (Bos taurus, UniProt P29702+P49355).
T1 construct: Partial purification of FT from bovine brain; from tissue; host or cells: bovine brain
Kind of assay: Farnesyl protein transferase (FT) inhibition assay. The conditions noted are these: for IC50: partially purified FT, Gst-HRas substrate. It is filed as biochemical, bovine. The protocol:
FT activity was quantified by measuring the incorporation of [^3 H]farnesyl from all-trans-[^3 H]farnesylpyrophosphate into purified Gst-HRas.
Partial purification of FT from bovine brain was performed essentially as described by Reiss at al. (Reiss et al, Cell, 1990, 62: 81), except that a fractogel DEAE column (150×16 mm, Merck) was used for the ion exchange chromatagraphy step. GST-HRas expression vector was constructed by cloning the Hras gene into a pGEX-1 vector, and expressed in E. coli strain TG1. The protein was purified using glutathione agarose (Sigma USA). FT inhibition assays were run in 96-well dishes in a reaction volume of […]. The final reaction mixture contained 5 mM GST-HRas, 0.9 mM [^3 H]farnesylpyrophosphate 20,000 dmp/pmol (NEN-Dupont), 1 mg of partially purified FT, 5 mM MgCl2, 3 mM ZnCl2, 40 mM TRIS.HCl pH 7.5, 60 mM NaCl, 1 mM DTT, 0.2 mM Glutathione, 0.03% Octyl-b-D-glucopyranoside, and serial dilutions of inhibitor.
Following incubation at 37° C. for 30 minutes the reactions were stopped by adding 100 ml of 4% sodium dodecyl sulfate (SDS) followed by 100 ml of 30% trichloroacetic acid (TCA). Plates were incubated for 100 minutes on ice, and the precipitates were filtered using a Millipore milliblot™-system (Millipore Corp., Bedford Mass.) with GF/C membranes. The wells were washed twice with 200 ml of 2% SDS/6% TCA and 7 times with […] of 6% TCA. The filters were punched into 4 ml vials and dried at 70° C. for 10 minutes. 3 ml of scintillation fluid was added and radioactivity was monitored by scintillation counting. IC50 values were resolved from dose-response curves of percent control versus log drug concentration, using the Regression program (Blackwell, UK). Each compound was tested 2-4 times.

The target of assay [2] is T2, Geranylgeranyl transferase-I (GGT) (Bos taurus, UniProt P29702+Q5EAD5).
T2 construct: GGT was partially purified from bovine brain; from tissue; host or cells: bovine brain cytosol
Kind of assay: Geranylgeranyl transferase-I (GGT) inhibition assay. The assay is classed as biochemical, bovine. The settings on record: partially purified GGT, Gst-HRas-CVLL substrate. The source says: The second assay estimated the selectivity of the inhibitor towards FT over a related enzyme, geranylgeranyl-protein-transferase-I (GGT), which transfers a C20 -isoprenoid to a thiol group of cysteine of a C-terminal CAAL (SEQ ID NO:17) peptide sequence derived from geranylgeranylpyrophosphate. Geranylgeranylation of normal cellular proteins is 5-10 times more common than farnesylation (Gibbs et al., Cell, 1994, 77: 175; Gibbs, Cell, 1991, 65: 1; Maltese,. FASEB J., 1990, 4: 3319).
A selective FT-inhibitor is considered to cause fewer cytotoxic effects than a nonselective inhibitor of both FT and GGT. GGT activity, for the partially purified GGT enzyme (Moores et al., J. Biol. Chem., 1991, 266: 14603), was quantified by measuring the incorporation of [^3 H]geranylgeranyl from all trans [^3 H]geranylgeranylpyrophosphate, into purified Gst-HRas-CVLL.
GGT was partially purified from bovine brain. Cytosol was prepared and GGT was isolated using a fractogel DEAE column (150×16 mm, Merck) with NaCl gradient, as for FT purification (see Example 15 above). Fractions containing the GGT activity were pooled and stored at -70° C. Hras gene was point mutated using an oligonucleotide directed in vitro mutagenesis system (Amersham version 2.1). The mutated Hras gene was cloned into the GST--frame of a pGEX-1 expression vector, expressed in E. coli strain TG1, and a fusion protein Gst-HRas-CVLL (SEQ ID NO:22) was purified on glutathione agarose.

In a further assay the target is T3, FT (Bos taurus, UniProt P29702+P49355).
T3 construct: Partial purification of FT from bovine brain; from tissue; host or cells: bovine brain
The assay is described as follows: Inhibitor farnesylation assay (alternative substrate). The assay is classed as biochemical, bovine. The conditions noted are these: incubated with FT and [3H]farnesylpyrophosphate in the absence of Ras. As to the method:
The third assay checked whether the inhibitor itself undergoes farnesylation. For this purpose, the inhibitor was incubated with the FT enzyme and [^3 H]farnesylpyrophosphate in the absence of Ras.
For examination whether the inhibitors undergo farnesylation a previously described procedure (Goldstein et al., J. Biol. Chem., 1991, 266: 15575) was used. Each reaction mixture contained the following components in a final volume of […]: 40 mM TRIS.HCl pH 7.5, 67 mM NaCl, 5 mM MgCl2, 7 mM ZnCl2, 1 mM DTT, 0.07% (v/v) octyl-b-D-glucopyranoside, 20 pmol of [^3 H]farnesylpyrophosphate 45,000 dpm/pmol, 4 mM peptide or peptoid, and 1 mg of partially purified FT. After incubation at 37° C. for 30 minutes, the entire reaction mixture was spotted onto an aluminum backed Silica Gel thin layer sheet (20×20 cm, Merck), and placed in a tank containing n-propyl-alcohol/ammonium hydroxide/water (6:3:1, v/v/v). The chromatogram was run for 4 hours, sprayed with EN^3 HANCE (Dupont) and exposed to RX film (FUJI) for 4 days at -70° C.

In assay [3] the target is farnesyl protein transferase (Homo sapiens, UniProt P49354+P49356). The settings on record: cited from earlier work; for farnesyl protein transferase inhibitory potency in vitro: literature.
The test system of assay [4] is Ras processing in v-Ha-ras transformed NIH3T3 cells. The assay is described as follows: Protein processing assay in intact cells: Ras. The assay is classed as cell-based. The conditions noted are these: 48 hr, western blot, compared with vehicle. A general note: Immunoblotting shows a protein as a band on a membrane.
Experimental: Its selectivity towards FT as compared to GGT in whole cells, was determined by its relative inhibitory effects on Ras farnesylation and on Rap1A/Krev geranylgeranylation (Casey, J. Lipid Res. 1992, 33, 1731-1740; Cox et al., Curr. Opin. Cell Biol. 1992, 4, 1008-1016; Garcia et al., J. Biol. Chem. 1993, 268, 18415-18418; and Vogt et al., J. Biol. Chem. 1995, 270, 660-664), respectively. v-Ha-ras transformed NIH3T3 cells were incubated with lovastatin or increasing concentrations of the inhibitor. Cells were lysed and the processed and unprocessed forms of Ras or Rap1A were separated by SDS-PAGE and immunoblotted with anti-Ras or anti-Rap1A antibodies, respectively. Lovastatin is a compound which blocks the processing of isoprenylated proteins in cells by inhibiting an early step of the isoprenoid biosynthetic pathway, and therefore serves as a positive control for the inhibition of both geraylgeranylation and farnesylation (Kohl et al., Science 1993, 260, 1934-1937; Garcia et al., J. Biol. Chem. 1993, 268, 18415-18418; Vogt et al., J. Biol. Chem. 1995, 270, 660-664).
After 48 hr of incubation, cell extracts were separated on SDS-PAGE and immunoblotted with anti-Ras antibody.
Cells were lysed (Garcia et al., J. Biol. Chem. 1993, 268, 18415-18418) in 1% Nonidet P-40, 5 mM TRIS.HCl pH 8.0, 5 mM EDTA, 1 mM phenylmethylsulfonyl fluoride, 10 mg/ml aprotonin, 10 mg/ml soybean trypsin inhibitor and 313 mg/ml benzamidine. The lysate was separated by centriflgation and the supernatant used as cell extract. Total protein was separated by SDS-PAGE (40 mg/lane) in 15% acrylamide (0.4% bis-acrylamide) gels, transferred onto nitrocellulose (Schleicher & Schuell, optitran BA-S 85) and probed with anti-Ras antibody Y13-259, or monoclonal anti-Rap1A/K-rev antibody (transduction laboratories). The western blots were visualized using an enhanced chemiluminescence (ECL) detection system.
Assay [5] relates to Rap1A/K-rev processing in v-Ha-ras transformed NIH3T3 cells. The assay is described as follows: Protein processing assay in intact cells: Rap1A/K-rev. The settings on record: 48 hr, western blot. It is filed as cell-based.
Experimental: Its selectivity towards FT as compared to GGT in whole cells, was determined by its relative inhibitory effects on Ras farnesylation and on Rap1A/Krev geranylgeranylation (Casey, J. Lipid Res. 1992, 33, 1731-1740; Cox et al., Curr. Opin. Cell Biol. 1992, 4, 1008-1016; Garcia et al., J. Biol. Chem. 1993, 268, 18415-18418; and Vogt et al., J. Biol. Chem. 1995, 270, 660-664), respectively. v-Ha-ras transformed NIH3T3 cells were incubated with lovastatin or increasing concentrations of the inhibitor. Cells were lysed and the processed and unprocessed forms of Ras or Rap1A were separated by SDS-PAGE and immunoblotted with anti-Ras or anti-Rap1A antibodies, respectively.
To test the selectivity of compound 12 towards FT in whole cells, the post-translational processing of an endogenous geranylgeranylated protein, Rap1A/K-rev, was analyzed.
v-Ha-ras transformed NIH3T3 fibroblasts were treated with 15 mM lovastatin or the indicated concentrations of compound 12 or vehicle (0.25 mM DTT, 0.25% DMSO), for 48 hr. Cells were lysed (Garcia et al., J. Biol. Chem. 1993, 268, 18415-18418) in 1% Nonidet P-40, 5 mM TRIS.HCl pH 8.0, 5 mM EDTA, 1 mM phenylmethylsulfonyl fluoride, 10 mg/ml aprotonin, 10 mg/ml soybean trypsin inhibitor and 313 mg/ml benzamidine. The lysate was separated by centriflgation and the supernatant used as cell extract. […]
The subject of assay [6] is Ras processing in cells transformed with v-ras. The conditions noted are these: cited from earlier work.

Square brackets hold non-standard residues; d marks the D form. Ends that are not written are not given here. Peptide text beside a SMILES is read from it. * marks the point of attachment. N(3,4-(MeO)2phenethyl)Gly = COc1ccc(CCNCC(=O)O)cc1OC; Farnesyl = CC(C)=CCC/C(C)=C/CC/C(C)=C/C*; Gly(NCH2CH2Ph) = O=C(O)CNCCc1ccccc1; Gly(N-cHex) = O=C(O)CNC1CCCCC1; NMeV = CN[C@H](C(=O)O)C(C)C; N(iPr)Gly = CC(C)NCC(=O)O; Nphe = O=C(O)CNCc1ccccc1; Nleu = CC(C)CNCC(=O)O

With `COc1ccc(CCN(CC(=O)N[C@@H](CCSC)C(=O)O)C(=O)[C@@H](NC(=O)[C@@H](N)CS)C(C)C)cc1OC` [Semipeptoid 3, cysteinyl-valyl-(Nα-3,4-dimetoxyphenethyl)glycyl-methionine] (H-CV[N(3,4-(MeO)2phenethyl)Gly]M-OH), the IC50 amounted to 0.12 µM in assay [1] and 23 µM in assay [2]. Also, the “times more potent than compound 6 (FT)” value in assay [1] (versus compound 6) came to 33 times. Moreover, at FT, the “alternative substrate (inhibitor itself farnesylated)” value is “no”.

In the case of `CC[C@H](C)[C@@H](CO[C@@H](Cc1ccccc1)C(=O)N[C@@H](CCS(C)(=O)=O)C(=O)O)NC[C@@H](N)CS` [L-739,750], in assay [3], the “farnesyl protein transferase inhibitory potency in vitro” value is reported as “potent inhibitor”.

On to `CSCC[C@H](NC(=O)[C@H](Cc1ccccc1)NC(=O)CN(CC(C)C)C(=O)[C@@H](N)CS)C(=O)O` [Semipeptoid 10, cysteinyl-(Nα-isobutyl)glycyl-phenylalanyl-methionine] (H-C[Nleu]FM-OH), for which the IC50 in assay [1] stood at 75 µM; in assay [2], 240 µM. For the same compound, the “alternative substrate (inhibitor itself farnesylated)” value at FT was “no”.

On to `CC[C@H](C)C(=O)O[C@H]1C[C@@H](C)C=C2C=C[C@H](C)[C@H](CC[C@@H]3C[C@@H](O)CC(=O)O3)[C@H]21` [lovastatin, reference compound], for which, in assay [4], the “effect on Ras processing” value is “increased amount of unprocessed Ras versus processed Ras”. In assay [5], the “effect on Rap1A/K-rev processing” value is recorded as “did inhibit Rap1A/K-rev processing”.

With `CSCC[C@H](NC(=O)[C@H](Cc1ccccc1)NC(=O)CN(C(=O)[C@@H](N)CS)C(C)C)C(=O)O` [Semipeptoid 8, cysteinyl-(Nα-isopropyl)glycyl-phenylalanyl-methionine] (H-C[N(iPr)Gly]FM-OH), the IC50 worked out at 50 µM in assay [1] and 155 µM in assay [2]. For the same compound, on FT, the “alternative substrate (inhibitor itself farnesylated)” value is “no”.

With “CVLS: CAAX tetrapeptide (SEQ ID NO:18); the result concerns its farnesylated form (C(Farnesyl)VLS)”, the “fold less potent as inhibitor: farnesylated peptide versus its corresponding tetrapeptide” value in assay [3] (farnesylated form of the peptide) is “about 13 fold”.

As for `CSCC[C@H](NC(=O)CN(Cc1ccccc1)C(=O)CN(CCN(C)C)C(=O)[C@@H](N)CS)C(=O)O` [Semipeptoid 7, cysteinyl-(Nα(N,N-dimethylaminoethyl))glycyl-(Nα-benzyl)glycyl-methionine], the IC50 in assay [1] was 3 µM; in assay [2], 40 µM. Besides, the “alternative substrate (inhibitor itself farnesylated)” value at FT is “no”.

For `CSCC[C@H](NC(=O)CN(C(=O)[C@@H](NC(=O)[C@@H](N)CS)C(C)C)C1CCCCC1)C(=O)O` [Semipeptoid 4, cysteinyl-valyl-(Nα-cyclohexyl)glycyl-methionine] (H-CV[Gly(N-cHex)]M-OH), the values for the IC50 in assay [1] and in assay [2] were 0.07 µM and 5 µM, respectively. In addition, on FT, the “alternative substrate (inhibitor itself farnesylated)” value is recorded as “no”.

`CC[C@H](C)[C@H](NC[C@@H](NC[C@@H](N)CS)[C@@H](C)CC)C(=O)N[C@@H](CCO)C(=O)O` [L-731,735, N-{2(S)-[2(R)-amino-3-mercaptopropylamino]-3(S)-methylpentyl}isoleucyl-homoserine]: the “farnesyl protein transferase inhibitory potency in vitro” value in assay [3] is “potent and selective inhibitor”. The “effect on Ras processing in cells” value in assay [6] is “no effect on Ras processing”.

Take `CSCC[C@H](NC(=O)CN(C(=O)[C@H](C(C)C)N(C)C(=O)[C@@H](N)CS)C1CCCCC1)C(=O)O` [Semipeptoid 11, cysteinyl-(Nα-methyl)valyl-(Nα-cyclohexyl)glycyl-methionine] (H-C[NMeV][Gly(N-cHex)]M-OH): in assay [1] (FT over GGT, versus compound 4), the “increase of selectivity versus compound 4” value came out at 11 fold. The IC50 in assay [1] was 0.0012 µM; in assay [2], 0.91 µM. In addition, in assay [1] (selectivity ratio), the “IC50 (GGT)/IC50 (FT)” value is listed as 758. In assay [1] (versus compound 4), the “improvement of potency versus compound 4 (FT)” value is given as 58 fold. Also, the results for the “alternative substrate (inhibitor itself farnesylated)” value at FT (listed as 11) and on FT (listed as compound 11) were “no” and “non-farnesylated”, respectively.

For the compound `COc1ccc(CCN(CC(=O)N[C@@H](CCSC)C(=O)O)C(=O)CN(C(=O)[C@@H](N)CS)C(C)C)cc1OC` [Semipeptoid 6, cysteinyl-(Nα-isopropyl)glycyl-(Nα-3,4-dimetoxyphenethyl)glycyl-methionine] (H-C[N(iPr)Gly][N(3,4-(MeO)2phenethyl)Gly]M-OH), the IC50 is 4 µM in assay [1] and 80 µM in assay [2]. The “alternative substrate (inhibitor itself farnesylated)” value at FT is listed as “no”.

Consider `CSCC[C@H](NC(=O)[C@H](Cc1ccccc1)NC(=O)CN(CCN(C)C)C(=O)[C@@H](N)CS)C(=O)O` [Semipeptoid 9, cysteinyl-(Nα(N,N-dimethylaminoethyl))glycyl-phenylalanyl-methionine], for which the IC50 was 4 µM in assay [1] and above 400 µM in assay [2]. On FT, the “alternative substrate (inhibitor itself farnesylated)” value is recorded as “no”.

Turning to `CSCC[C@H](NC(=O)CN(CCc1ccccc1)C(=O)[C@@H](NC(=O)[C@@H](N)CS)C(C)C)C(=O)O` [Semipeptoid 2, cysteinyl-valyl-(Nα-phenethyl)glycyl-methionine] (H-CV[Gly(NCH2CH2Ph)]M-OH), the figures for the IC50 in assay [1] and in assay [2] were 0.32 µM and 30 µM, respectively. Moreover, the “reduction of relative potency versus compound 1 (FT)” value in assay [1] (versus compound 1) was 3.2 fold. Also, the “alternative substrate (inhibitor itself farnesylated)” value at FT is “no”.

Take `CSCC[C@H](NC(=O)CN(Cc1ccccc1)C(=O)[C@@H](NC(=O)[C@@H](N)CS)C(C)C)C(=O)O` [Semipeptoid 1, cysteinyl-valyl-(Nα-benzyl)glycyl-methionine] (H-CV[Nphe]M-OH): the IC50 in assay [1] was found to be 0.1 µM; in assay [2] it was 40 µM. In addition, the “fold more potent than compound 5 (FT)” value in assay [1] (versus compound 5) is 130 fold. In addition, the “fold more potent than compound 8 (FT)” value in assay [1] (versus compound 8) is on record as 500 fold. In addition, the “alternative substrate (inhibitor itself farnesylated)” value at FT is “no”.

Consider `CSCC[C@H](NC(=O)CN(Cc1ccccc1)C(=O)CN(C(=O)[C@@H](N)CS)C(C)C)C(=O)O` [Semipeptoid 5, cysteinyl-(Nα-isopropyl)glycyl-(Nα-benzyl)glycyl-methionine] (H-C[N(iPr)Gly][Nphe]M-OH), for which the results for the IC50 in assay [1] and in assay [2] were 13 µM and 190 µM, respectively. Besides, the “alternative substrate (inhibitor itself farnesylated)” value on FT was “no”.

One may read the IC50 as the concentration that inhibits the measured activity by half.

The values are drawn from patent publication US5990277A, “Semipeptoid farnesyl protein transferase inhibitors and analogs thereof” (Yissum Research Development Company of the Herbrew …, priority 1996, dated 1999).
